Several values for one entry are separate records, joined by “and”; a condition that tells them apart may be missing. Equal values may be shown once.
Test system: P. falciparum 3D7 growth, pLDH absorbance
Assay: blood-stage malaria parasite growth potency – strain 3D7, dose response (AID 2305)

Row | Structure (SMILES) | IC50
1 | NC1=NC(c2ccccc2)(c2ccccc2)C(=O)N1Cc1ccc(-c2cccnc2)cc1 | 700 nM
2 | Cc1ccc(C(=O)NCC2CCN(c3ccc(C(F)(F)F)cc3NC(=O)c3ccco3)CC2)cn1 | 780 nM
3 | CCNc1cc(C(=O)N[C@@H](Cc2ccccc2)[C@H](O)CNC2CCCCC2)cc(N2CCCCS2(=O)=O)c1 | 170 nM
4 | Nc1c(Cl)cc(C(O)CNCCCCCOCCc2ccc3ccccc3n2)cc1Cl (centres undefined) | 1020 nM
5 | CCc1cn2c3c(cc(C(=O)N[C@@H](Cc4cc(F)cc(F)c4)[C@H](O)CNC4CCCCC4)cc13)N(C)S(=O)(=O)CC2 | 30 nM
6 | O[C@@H](c1cccc(OCc2ccccc2)c1)[C@@H]1CN(CCc2ccccc2)CC[C@@]1(O)c1ccccc1 | 220 nM
7 | CN1CCC(NCc2cccc(-c3ccc(S(=O)(=O)NCCc4ccccn4)cc3)c2)CC1 | 830 nM
8 | COc1ccc2nccc(NC(=O)CNCc3ccc(-c4ccccc4)cc3)c2c1 | 770 nM
9 | CCCCCCN1CCN(Cc2cccc(NC(=O)c3cc4ccccc4o3)c2)CC1 | 910 nM
10 | Oc1ccc(CCNc2nc(NCc3ccccc3-c3ccc(C(F)(F)F)cc3)nc(N3CCCNCC3)n2)cc1 | 870 nM
11 | Cc1cc(N(C)C)nc(Nc2ccc(NC(=O)c3c(F)cccc3F)cc2)n1 | 1380 nM
12 | Cc1nc(-c2ccc(-c3ccc(C(=O)Nc4ccc(I)c(OCC5CCCN5C)c4)cc3)c(C)c2)no1 (centres undefined) | 30 nM
13 | CCCCCC(C)C(C)c1cc(O)c2c(c1)O[C@@]1(C(C)C)CC(O)[C@H](C)[C@@H]2C1 (some centres undefined) | 990 nM
14 | CC(C)c1ccc(N2CCN(CCCCNC(=O)c3ccc(NC(=O)c4cc(Cl)cc(Cl)c4)cc3)CC2)cc1 | 160 nM
15 | COc1ccc(F)cc1-c1csc(N(c2ccc(F)cc2)C2CCNCC2)n1 | 1210 nM
16 | COc1ccc2nccc([C@@H](O)CN3CCC(NCCNc4cccc(F)c4)CC3)c2c1 | 180 nM
17 | COc1ccc(-c2csc(C(=O)NC3CCC(N4CCC(c5ccccc5C)CC4)CC3)c2)cc1 (centres undefined) | 380 nM
18 | COc1cc(-n2cnc3cc(-c4ccc([N+](=O)[O-])cc4)sc3c2=O)ccc1OCCN1CCCC1 | 780 nM
19 | COc1cc(-c2nc3ccc(N4CCN(C)CC4)cc3[nH]2)cc(OC)c1OC | 1270 nM
20 | CN(C)CCOc1cccc(NC(=O)Nc2ccc(-c3ccccc3)cc2)c1 | 880 nM
21 | CCCCCCN1CCC(NCc2cccc(C#N)c2)CC1 | 780 nM
22 | COc1ccc2nc(C)cc(NN=Cc3ccc([N+](=O)[O-])cc3)c2c1 | 690 nM
23 | COc1cc2c(Nc3ccc(NC(=O)c4ccccc4)cc3)ncnc2cc1OCCCN1CCOCC1 | 650 nM
24 | CCCCCN(C(=O)Nc1cc(C(F)(F)F)cc(C(F)(F)F)c1)C(C)c1nc2ccccc2c(=O)n1CC (centres undefined) | 790 nM
25 | CNCCNCc1ccc(-c2ccc(-c3nc4ccc(F)cc4[nH]3)s2)cc1 | 770 nM

Row | Structure (SMILES) | IC50
26 | NC(N)=Nc1nc(-c2cc(NC(=O)C(F)(F)F)cc([N+](=O)[O-])c2)cs1 | 780 nM
27 | c1cc(Nc2nc(-c3ccc(-c4csc(Nc5ccncc5)n4)cc3)cs2)ccn1 | 120 nM
28 | CC(C)c1cc2c(ccc3nc(N)nc(N)c32)o1 | 90 nM
29 | Cc1cccc(OC2CCN(c3ncc(C(=O)NCCCN4CCCC4=O)cc3Cl)CC2)c1 | 180 nM
30 | CC[C@H]1CN2CC[C@H]1C[C@@H]2[C@@H](OC(=O)c1ccc(Cl)cc1)c1ccnc2ccc(OC)cc12 | 920 nM
31 | NS(=O)(=O)c1cncc(-c2ccc3nccc(-c4cn[nH]c4)c3n2)c1 | 530 nM
32 | CN1CCN(c2ccnc3ccc(NC(=O)N(C)c4ccc(Cl)c(Cl)c4)cc23)CC1 | 740 nM
33 | Cc1c(C)c2c(c(C)c1O)CC[C@@](C)(C(=O)NC1CCC(CN3CCC(c4c[nH]c5ccccc45)CC3)CC1)O2 (some centres undefined) | 960 nM
34 | CC(C)(CNC(=O)C1CCN(CCOCc2ccccc2)CC1)c1nc(-c2ccc(Cl)c(O)c2)c(-c2ccncc2)[nH]1 | 620 nM
35 | S=C(NCCc1ccccc1)Nc1ccc2ncsc2c1 | 1400 nM
36 | Cc1ccnc(NC(c2cccc(OCc3ccccc3)c2)c2ccc3cccnc3c2O)c1 (centres undefined) | 860 nM
37 | O=C(C=Cc1ccc(Cl)c(Cl)c1)NCCCCCN1CCCC(CCCNC(=O)c2sc3ccccc3c2Cl)C1 (centres undefined) | 1030 nM
38 | N=C(N)c1ccc(-c2cc3ccc(C(=N)N)cc3[nH]2)cc1 | 60 nM
39 | O=[N+]([O-])c1ccc2c(c1)c1ccccc1n2Cc1ccccc1O | 1110 nM
40 | CCc1cc2c(=O)c(-c3nc(C)cs3)c(N)oc2c(CN2CCCCC2)c1O | 660 nM
41 | COc1ccc(CNC(=O)c2cnc3cc(-c4c(C)noc4C)ccc3c2Nc2ccccc2C(C)(C)C)cc1 | 1300 nM
42 | c1ccc(CN2CCC(Nc3ccc(-c4cn[nH]c4-c4ccccn4)nc3)CC2)cc1 | 800 nM
43 | Cc1cc(C2CCN(CCCCNC(=O)c3ccc(NC(=O)c4ccc(Cl)cc4)cc3)CC2)c(C)cc1OCc1nccn1C | 830 nM
44 | CC(C)(C)C1CCC(C(=O)c2ccc3ccccc3c2O)CC1 (centres undefined) | 750 nM
45 | CCNc1cc(CCCC(=O)OCC)nc(Nc2ccc(C)cc2)n1 | 770 nM
46 | N#CCCN1CCN(Cc2ccc(-c3ccc(-c4nc5ccc(F)cc5[nH]4)s3)cc2)CC1 | 660 nM
47 | Nc1nc(Cc2ccc(Cl)cc2)nc(Cc2ccc(Cl)cc2)n1 | 930 nM
48 | CCNCc1ccc(-c2cccc(-c3nc4ccccc4[nH]3)c2)cc1 | 550 nM
49 | O=C(C=Cc1ccccc1Br)NC1CCC(CN2CCC(c3c[nH]c4ccccc34)CC2)CC1 (centres undefined) | 740 nM and 690 nM
50 | O=C(NC1CCN(c2ccnc3ccccc23)C1)c1cccc(C(F)(F)F)c1 (centres undefined) | 900 nM

Row | Structure (SMILES) | IC50
51 | CC(C)CNCc1cccc(-c2ccc(CN(C(=O)Nc3ccccc3)C3CCN(Cc4ccccc4)CC3)cc2)c1 | 480 nM
52 | CC(C)Cn1c(Sc2ccc(C#N)c([N+](=O)[O-])c2)nnc1-c1cccs1 | 1080 nM
53 | CCCc1cn2c3c(cc(C(=O)N[C@@H](Cc4ccccc4)[C@H](O)CNC4CCOCC4)cc13)N(CC)S(=O)(=O)CC2 | 100 nM
54 | CCCNC(=O)Nc1ccc(N(C)c2ccnc(NC3CC3)n2)cc1 | 620 nM
55 | Cn1nc(-c2ccccc2F)c2cc(C(=O)NC3CCN(Cc4ccccc4)CC3)sc21 | 790 nM
56 | Cc1cccc2[nH]c(-c3ccc(-c4ccc(CN5CCCC(N)C5)cc4)s3)nc12 (centres undefined) | 380 nM
57 | Nc1nc(N)c2c3c(ccc2n1)NCCC3 | 730 nM
58 | COc1ccccc1Nc1nc(C)cc(NCc2ccc(-c3c(C)noc3C)cc2)n1 | 870 nM
59 | CCN(CC)CCCN(CCCN(CC)CC)c1cc(C)nc(Nc2ccc(Br)cc2)n1 | 200 nM
60 | COc1cccc(CN2Cc3ccccc3OC3(CCN(Cc4c[nH]c5cnccc45)CC3)C2)c1 | 1300 nM
61 | COc1ccc2c(NN=Cc3ccccc3F)cc(C)nc2c1 | 1000 nM
62 | CCNC(=O)c1ccc(-n2nc(C)cc2-c2ccccc2)cc1 | 1120 nM
63 | COc1ccc2ccccc2c1CCCCN1CCN(CC(c2ccc(F)cc2)N2CCC2)CC1 (centres undefined) | 760 nM
64 | Cc1ccc(NC(=O)c2cccc(N3CCN(c4ccncc4)CC3)c2)cc1F | 1300 nM
65 | COc1cc(Cc2cnc(N)nc2N)cc(OCCCCC2SC(=O)NC2=O)c1OC (centres undefined) | 30 nM
66 | Cc1cccc(CNc2nc(C)cc(NCCC(=O)Nc3ccccc3)n2)c1 | 1050 nM
67 | COc1ccc2nc(C)cc(NC3Cc4ccccc4C3)c2c1 | 840 nM
68 | Fc1cc(Cl)ccc1Nc1ccnc2cc(-c3ccc(CN4CCNCC4)o3)ccc12 | 280 nM
69 | O=S(=O)(NCCN1CCCC1)c1ccc(-c2cccc(CNCc3ccc(F)cc3)c2)s1 | 760 nM
70 | CS(=O)(=O)Nc1cccc(-c2cnc3[nH]cc(-c4ccc(CN)cc4)c3c2)c1 | 990 nM
71 | COc1ccc(-c2cccc(CNC3CCN(C)CC3)c2)cc1S(=O)(=O)NCc1ccccc1 | 870 nM
72 | Cc1cccc2[nH]c(-c3ccc(-c4ccc(NC(=O)C5CCN(C)CC5)cc4)cc3)nc12 | 750 nM
73 | COc1ccc2cc(C(=O)NC3CCC(CCN4CCc5cc(C#N)ccc5C4)CC3)[nH]c2c1 (centres undefined) | 1010 nM
74 | CCOc1ccccc1[C@H]1[C@H](C(=O)C(C)(C)C)N2c3ccc(Br)cc3C=CC2C12C(=O)c1ccccc1C2=O (some centres undefined) | 850 nM
75 | CCOc1cc(C(C)C)ccc1C1CCN(CCCCNC(=O)c2ccc(NC(=O)c3ccc(Cl)cc3)cc2)CC1 | 810 nM

Row | Structure (SMILES) | IC50
76 | COc1ccc(Cl)cc1N1CCN(CCCNC(=O)c2ccc(-c3nc4cc(Cl)c(Cl)cc4[nH]3)c(C)c2)CC1 | 870 nM
77 | CC(=O)C1(c2ccccc2)CCN(CCC2(c3ccc(Cl)c(Cl)c3)CN(C(=O)Nc3cc(F)cc(F)c3)CCO2)CC1 (centres undefined) | 1480 nM
78 | Cc1cccc2[nH]c(-c3cccc(-c4cccc(NC(=O)c5cnc[nH]5)c4)c3)nc12 | 260 nM
79 | C=CCOc1ccc(C2C(C(=O)OC)=C(C)NC3=C2C(=O)c2ccccc23)cc1OC (centres undefined) | 880 nM
80 | COc1ccc(Cl)cc1NC(=O)Nc1ccnc2ccccc12 | 680 nM
81 | CCN(CC)CCn1c2ccccc2c2ccc(C(=O)Nc3ccc4sc(C)nc4c3)cc21 | 1060 nM
82 | CN(C)Cc1cc(Nc2ccnc3cc(Cl)ccc23)ccc1O | 10 nM
83 | CCCCC(=O)Nc1cc(=O)[nH]c2nc(-c3ccc(Cl)cc3)nn12 | 710 nM
84 | CN(C)C=Nc1ccc(OCCCCCCOc2ccc(N=CN(C)C)cc2)cc1 | 130 nM
85 | Cc1ccc(-n2cc(CNCCCn3ccnc3)c(-c3cccc(C)c3)n2)cc1 | 770 nM
86 | Cc1c(-c2ccc(C(=O)NC3CC(C)(C)NC(C)(C)C3)cc2)[nH]c2cc(Cl)c(Cl)cc12 | 750 nM
87 | O=C(/C=C/c1c(Cl)cccc1Cl)NC1CCC(CN2[C@@H]3CC[C@H]2CC(c2c[nH]c4ccccc24)C3)CC1 (some centres undefined) | 840 nM
88 | CC(C)CCN(Cc1cncn1Cc1cccc(C(F)(F)F)c1)C(=O)c1ccccc1C#N | 610 nM
89 | O=C(NCc1cccc2ccccc12)C1CCCN(C(=O)c2ccc(O)c(-c3ccc(Cl)c(Cl)c3)c2)C1 (centres undefined) | 1030 nM
90 | Cc1cnc(C(=O)Nc2cccc(-c3ccc(-c4nc5ccc(F)cc5[nH]4)cc3)c2)cn1 | 640 nM
91 | CSc1nccc(-c2ccc3ccnc(N)c3c2)n1 | 920 nM
92 | CC(C)C(=O)NC(c1cccs1)c1cc(Cl)c2cccnc2c1O (centres undefined) | 580 nM
93 | C[C@@H](N=C(Nc1ccc(C#N)cc1O)Nc1ccccc1Cl)c1ccc(Br)cc1 | 750 nM
94 | CCn1c(O)c(N=NC(=S)N2CCCC2)c2ccccc21 | 1000 nM
95 | O=C(c1ccc(Cl)cc1)N1CCOC(CCN2CCC(c3ccccc3)CC2)(c2ccc(Cl)c(Cl)c2)C1 (centres undefined) | 240 nM
96 | Cc1[nH]c(C)c(-c2ccc(-c3ccc(F)cc3)cc2)c(=O)c1Br | 1070 nM
97 | Cn1nc(-c2ccc(NC(=O)Nc3cc(C(F)(F)F)ccc3F)cc2)c2cnc(NCCc3cnc[nH]3)nc21 | 810 nM
98 | CC1CCc2c(C(=O)N3CCc4ccccc4C3)csc2C1 (centres undefined) | 780 nM
99 | O=S(=O)(c1ccccc1OC(F)(F)F)C1C[C@H]2CC[C@@H](C1)N2S(=O)(=O)c1cccc(C(F)(F)F)c1 (some centres undefined) | 670 nM

Reference: PubChem BioAssay AID2305 (GlaxoSmithKline (GSK), 2010)
